Experimental data reported in ChEMBL document CHEMBL1649485, “High prevalence of qnr genes in commensal enterobacteria from healthy children in Peru and Bolivia” (2009).
Converted amounts (≈) assume the structure as drawn.

Assays:
Klebsiella pneumoniae [1] = assay: Antimicrobial activity against Klebsiella pneumoniae isolate Y1 harboring qnrB19 gene by agar dilution method; assay type: functional
Klebsiella pneumoniae [2] = assay: Antimicrobial activity against Klebsiella pneumoniae isolate M1 harboring qnrB19 gene by agar dilution method; assay type: functional
Klebsiella oxytoca [3] = assay: Antimicrobial activity against Klebsiella oxytoca isolate M2 harboring qnrS1 gene by agar dilution method; assay type: functional
Klebsiella pneumoniae [4] = assay: microbe, parasite or virus in culture; conditions: isolate M2
Description: Antimicrobial activity against Klebsiella pneumoniae isolate M2 harboring qnrS1 gene by agar dilution method

Klebsiella pneumoniae [5] = assay: Antimicrobial activity against Klebsiella pneumoniae isolate C2 harboring qnrS1 gene by agar dilution method; assay type: functional
Klebsiella oxytoca [6] = assay: Antimicrobial activity against Klebsiella oxytoca clinical isolate assessed as susceptible isolate; assay type: functional; conditions: pooled result: one value given for 4 cell lines, strains, targets or settings
Klebsiella pneumoniae [7] = assay: Antimicrobial activity against qnrB-positive Klebsiella pneumoniae clinical isolate assessed as susceptible isolate; assay type: functional
Escherichia coli [8] = assay: Antimicrobial activity against qnrS-positive Escherichia coli clinical isolate assessed as resistant isolate; assay type: functional
Escherichia coli [9] = assay: Antimicrobial activity against qnrS-positive Escherichia coli clinical isolate assessed as susceptible isolate; assay type: functional
Escherichia coli [10] = assay: Antimicrobial activity against qnrS-positive Escherichia coli clinical isolate by agar dilution method; assay type: functional
Klebsiella oxytoca [11] = assay: Antimicrobial activity against Klebsiella oxytoca clinical isolate assessed as resistant isolate; assay type: functional
Klebsiella oxytoca [12] = assay: Antimicrobial activity against Klebsiella oxytoca isolate M1 harboring qnrB19 gene by agar dilution method; assay type: functional
Klebsiella pneumoniae [13] = assay: Antimicrobial activity against Klebsiella pneumoniae isolate Y2 harboring qnrS1 gene by agar dilution method; assay type: functional
Klebsiella pneumoniae [14] = assay: Antimicrobial activity against qnrS-positive Klebsiella pneumoniae clinical isolate by agar dilution method; assay type: functional
Escherichia coli [15] = assay: Antimicrobial activity against qnrB/S-positive Escherichia coli clinical isolate by agar dilution method; assay type: functional
Escherichia coli [16] = assay: Antimicrobial activity against Escherichia coli isolate Y1 harboring qnrB19 gene by agar dilution method; assay type: functional
Escherichia hermannii [17] = assay: Antimicrobial activity against Escherichia hermannii isolate C1 harboring qnrB19 gene by agar dilution method; assay type: functional; conditions: Atlantibacter hermannii
Escherichia coli [18] = assay: Antimicrobial activity against Escherichia coli isolate M2 harboring qnrS1 gene by agar dilution method; assay type: functional
Escherichia coli [19] = assay: Antimicrobial activity against Escherichia coli isolate Y3 harboring qnrS1 gene by agar dilution method; assay type: functional
Escherichia coli [20] = assay: Antimicrobial activity against qnrB/S-positive Escherichia coli clinical isolate assessed as susceptible isolate; assay type: functional
Klebsiella pneumoniae [21] = assay: Antimicrobial activity against qnrB-positive Klebsiella pneumoniae clinical isolate by agar dilution method; assay type: functional
Citrobacter freundii [22] = assay: Antimicrobial activity against Citrobacter freundii clinical isolate assessed as resistant isolate; assay type: functional
Klebsiella pneumoniae [23] = assay: Antimicrobial activity against Klebsiella pneumoniae isolate V2 harboring qnrS1 gene by agar dilution method; assay type: functional
Escherichia coli [24] = assay: Antimicrobial activity against qnrB-positive Escherichia coli clinical isolate assessed as susceptible isolate; assay type: functional
Escherichia hermannii [25] = assay: Antimicrobial activity against Escherichia hermannii clinical isolate assessed as resistant isolate; assay type: functional, Atlantibacter hermannii
Escherichia coli [26] = assay: Antimicrobial activity against Escherichia coli isolate M3 harboring qnrS1 gene by agar dilution method; assay type: functional
Escherichia coli [27] = assay: Antimicrobial activity against qnrB/S-positive Escherichia coli clinical isolate assessed as resistant isolate; assay type: functional
Citrobacter freundii [28] = assay: Antimicrobial activity against Citrobacter freundii isolate V1 harboring qnrB10 gene by agar dilution method; assay type: functional
Escherichia coli [29] = assay: Antimicrobial activity against Escherichia coli isolate C1 harboring qnrB19 gene by agar dilution method; assay type: functional
Enterobacter cloacae [30] = assay: Antimicrobial activity against Enterobacter cloacae clinical isolate by agar dilution method; assay type: functional
Escherichia coli [31] = assay: Antimicrobial activity against qnrB-positive Escherichia coli clinical isolate by agar dilution method; assay type: functional
Escherichia coli [32] = assay: Antimicrobial activity against qnrB-positive Escherichia coli clinical isolate assessed as resistant isolate; assay type: functional
Escherichia coli [33] = assay: Antimicrobial activity against Escherichia coli isolate V1 harboring qnrB19 gene by agar dilution method; assay type: functional
Escherichia coli [34] = assay: Antimicrobial activity against Escherichia coli isolate M1 harboring qnrB19 gene by agar dilution method; assay type: functional
Enterobacter cloacae [35] = assay: Antimicrobial activity against Enterobacter cloacae isolate V1 harboring qnrB2 gene by agar dilution method; assay type: functional
Escherichia hermannii [36] = assay: Antimicrobial activity against Escherichia hermannii clinical isolate by agar dilution method; assay type: functional; conditions: Atlantibacter hermannii
Enterobacter cloacae [37] = assay: Antimicrobial activity against Enterobacter cloacae clinical isolate assessed as resistant isolate; assay type: functional
Citrobacter freundii [38] = assay: Antimicrobial activity against Citrobacter freundii clinical isolate by agar dilution method; assay type: functional
Klebsiella oxytoca [39] = assay: Antimicrobial activity against Klebsiella oxytoca clinical isolate by agar dilution method; assay type: functional
Klebsiella pneumoniae [40] = assay: Antimicrobial activity against qnrS-positive Klebsiella pneumoniae clinical isolate assessed as susceptible isolate; assay type: functional
Escherichia coli [41] = assay: Antimicrobial activity against Escherichia coli isolate Y2 harboring qnrS1 gene by agar dilution method; assay type: functional
Klebsiella pneumoniae [42] = assay: Antimicrobial activity against qnrB-positive Klebsiella pneumoniae clinical isolate assessed as resistant isolate; assay type: functional
Klebsiella pneumoniae [43] = assay: Antimicrobial activity against qnrS-positive Klebsiella pneumoniae clinical isolate assessed as resistant isolate; assay type: functional
Klebsiella pneumoniae [44] = assay: microbe, parasite or virus in culture; conditions: isolate V1
Description: Antimicrobial activity against Klebsiella pneumoniae isolate V1 harboring qnrB2 gene by agar dilution method

## O=C(O)c1cn(C2CC2)c2cc(N3CCNCC3)c(F)cc2c1=O [CIPROFLOXACIN]
Klebsiella pneumoniae [1]
  MIC: 2 µg/mL (≈ 6.04 µM)
Klebsiella pneumoniae [2]
  MIC: 2 µg/mL (≈ 6.04 µM)
Klebsiella oxytoca [3]
  MIC: 4 µg/mL (≈ 12.1 µM)
Klebsiella pneumoniae [4]
  MIC: 4 µg/mL (≈ 12.1 µM)
Klebsiella pneumoniae [5]
  MIC: 2 µg/mL (≈ 6.04 µM)

## CCn1cc(C(=O)O)c(=O)c2ccc(C)nc21 [NALIDIXIC ACID]
Klebsiella oxytoca [6]
  Activity: 43%
Klebsiella pneumoniae [7]
  Activity: 20%
Escherichia coli [8]
  Activity: 0%
Klebsiella pneumoniae [1]
  MIC: 64 µg/mL (≈ 276 µM)
Escherichia coli [9]
  Activity: 100%
Escherichia coli [10]
  MIC: 16 µg/mL (≈ 68.9 µM)
Klebsiella oxytoca [11]
  Activity: 57%
Klebsiella oxytoca [12]
  MIC: 16 µg/mL (≈ 68.9 µM)
Klebsiella pneumoniae [13]
  MIC: 32 µg/mL (≈ 138 µM)
Klebsiella pneumoniae [14]
  MIC: 16 µg/mL (≈ 68.9 µM)
Escherichia coli [15]
  MIC: 16 µg/mL (≈ 68.9 µM)
Escherichia coli [16]
  MIC: 32 µg/mL (≈ 138 µM)
Escherichia hermannii [17]
  MIC: 32 µg/mL (≈ 138 µM)
Escherichia coli [18]
  MIC: 16 µg/mL (≈ 68.9 µM)
Klebsiella pneumoniae [2]
  MIC: 32 µg/mL (≈ 138 µM)
Escherichia coli [19]
  MIC: 16 µg/mL (≈ 68.9 µM)
Escherichia coli [20]
  Activity: 50%
Klebsiella pneumoniae [21]
  MIC: 16 µg/mL (≈ 68.9 µM)
Citrobacter freundii [22]
  Activity: 57%
Klebsiella pneumoniae [23]
  MIC: 16 µg/mL (≈ 68.9 µM)
Escherichia coli [24]
  Activity: 13%
Escherichia hermannii [25]
  Activity: 57%
Klebsiella oxytoca [3]
  MIC: > 128 µg/mL
Escherichia coli [26]
  MIC: 32 µg/mL (≈ 138 µM)
Escherichia coli [27]
  Activity: 50%
Klebsiella pneumoniae [4]
  MIC: 32 µg/mL (≈ 138 µM)
Citrobacter freundii [28]
  MIC: 16 µg/mL (≈ 68.9 µM)
Escherichia coli [29]
  MIC: 32 µg/mL (≈ 138 µM)
Enterobacter cloacae [30]
  MIC: 16 µg/mL (≈ 68.9 µM)
Escherichia coli [31]
  MIC50: 32 µg/mL (≈ 138 µM)
  MIC90: > 128 µg/mL
Klebsiella pneumoniae [5]
  MIC: 32 µg/mL (≈ 138 µM)
Escherichia coli [32]
  Activity: 87%
Escherichia coli [33]
  MIC: 32 µg/mL (≈ 138 µM)
Escherichia coli [34]
  MIC: 16 µg/mL (≈ 68.9 µM)
Enterobacter cloacae [35]
  MIC: 32 µg/mL (≈ 138 µM)
Escherichia hermannii [36]
  MIC: 16 µg/mL (≈ 68.9 µM)
Enterobacter cloacae [37]
  Activity: 57%
Citrobacter freundii [38]
  MIC: 16 µg/mL (≈ 68.9 µM)
Klebsiella oxytoca [39]
  MIC: 16 µg/mL (≈ 68.9 µM)
Klebsiella pneumoniae [40]
  Activity: 13%
Escherichia coli [41]
  MIC: 16 µg/mL (≈ 68.9 µM)
Klebsiella pneumoniae [42]
  Activity: 80%
Klebsiella pneumoniae [43]
  Activity: 87%
Klebsiella pneumoniae [44]
  MIC: 32 µg/mL (≈ 138 µM)

## C[C@H]1COc2c(N3CCN(C)CC3)c(F)cc3c(=O)c(C(=O)O)cn1c23.C[C@H]1COc2c(N3CCN(C)CC3)c(F)cc3c(=O)c(C(=O)O)cn1c23.O [LEVOFLOXACIN]
Klebsiella oxytoca [6]
  Activity: 71%
Klebsiella pneumoniae [7]
  Activity: 100%
Escherichia coli [8]
  Activity: 0%
Escherichia coli [9]
  Activity: 100%
Klebsiella oxytoca [11]
  Activity: 0%
Klebsiella oxytoca [12]
  MIC: 0.5 µg/mL
Klebsiella pneumoniae [13]
  MIC: 2 µg/mL
Escherichia hermannii [17]
  MIC: 0.25 µg/mL
Klebsiella pneumoniae [2]
  MIC: 2 µg/mL
Escherichia coli [20]
  Activity: 100%
Citrobacter freundii [22]
  Activity: 0%
Klebsiella pneumoniae [23]
  MIC: 2 µg/mL
Escherichia coli [24]
  Activity: 79%
Escherichia hermannii [25]
  Activity: 0%
Klebsiella oxytoca [3]
  MIC: 4 µg/mL
Escherichia coli [26]
  MIC: 2 µg/mL
Escherichia coli [27]
  Activity: 0%
Citrobacter freundii [28]
  MIC: 0.5 µg/mL
Enterobacter cloacae [30]
  MIC: 0.25 µg/mL
Escherichia coli [31]
  MIC50: 1 µg/mL
  MIC90: 4 µg/mL
Klebsiella pneumoniae [5]
  MIC: 2 µg/mL
Escherichia coli [32]
  Activity: 4%
Enterobacter cloacae [35]
  MIC: 2 µg/mL
Escherichia hermannii [36]
  MIC: 0.25 µg/mL
Enterobacter cloacae [37]
  Activity: 0%
Citrobacter freundii [38]
  MIC: 0.25 µg/mL
Klebsiella oxytoca [39]
  MIC: 0.25 µg/mL
Klebsiella pneumoniae [40]
  Activity: 87%
Klebsiella pneumoniae [42]
  Activity: 0%
Klebsiella pneumoniae [43]
  Activity: 13%
